Data: patent US20110105565A1, “WATER SOLUBLE SMALL MOLECULE INHIBITORS OF THE CYSTIC FIBROSIS TRANSMEMBRANE CONDUCTANCE REGULATOR” (THE REGENTS OF THE UNIVERSITY OF CALIFORNIA, priority 2008, published 2011)
Read-outs that look alike come from different tables or passages of the source.

Target: human wildtype CFTR (Homo sapiens, UniProt P13569)
Experiment: Fluorescence cell-based assay of CFTR inhibition (YFP iodide influx, FRT cells)
Parameters: expressed in transfected cells; host or cells: Fisher rat thyroid (FRT) cells
Conditions: for CFTR inhibitory activity (in words): structure-activity discussion
[1] = Table 1, upper part, CFTR inhibitory activity, given as ranges, read-out: IC50
[2] = Table 2 summary table, given as ranges, read-out: IC50
[3] = Tables 1 and 2, read-out: IC50 (CFTR inhibition)
[4] = Table 1, lower parts, given as ranges, read-out: IC50

human wildtype CFTR, sequence (P13569 whole entry): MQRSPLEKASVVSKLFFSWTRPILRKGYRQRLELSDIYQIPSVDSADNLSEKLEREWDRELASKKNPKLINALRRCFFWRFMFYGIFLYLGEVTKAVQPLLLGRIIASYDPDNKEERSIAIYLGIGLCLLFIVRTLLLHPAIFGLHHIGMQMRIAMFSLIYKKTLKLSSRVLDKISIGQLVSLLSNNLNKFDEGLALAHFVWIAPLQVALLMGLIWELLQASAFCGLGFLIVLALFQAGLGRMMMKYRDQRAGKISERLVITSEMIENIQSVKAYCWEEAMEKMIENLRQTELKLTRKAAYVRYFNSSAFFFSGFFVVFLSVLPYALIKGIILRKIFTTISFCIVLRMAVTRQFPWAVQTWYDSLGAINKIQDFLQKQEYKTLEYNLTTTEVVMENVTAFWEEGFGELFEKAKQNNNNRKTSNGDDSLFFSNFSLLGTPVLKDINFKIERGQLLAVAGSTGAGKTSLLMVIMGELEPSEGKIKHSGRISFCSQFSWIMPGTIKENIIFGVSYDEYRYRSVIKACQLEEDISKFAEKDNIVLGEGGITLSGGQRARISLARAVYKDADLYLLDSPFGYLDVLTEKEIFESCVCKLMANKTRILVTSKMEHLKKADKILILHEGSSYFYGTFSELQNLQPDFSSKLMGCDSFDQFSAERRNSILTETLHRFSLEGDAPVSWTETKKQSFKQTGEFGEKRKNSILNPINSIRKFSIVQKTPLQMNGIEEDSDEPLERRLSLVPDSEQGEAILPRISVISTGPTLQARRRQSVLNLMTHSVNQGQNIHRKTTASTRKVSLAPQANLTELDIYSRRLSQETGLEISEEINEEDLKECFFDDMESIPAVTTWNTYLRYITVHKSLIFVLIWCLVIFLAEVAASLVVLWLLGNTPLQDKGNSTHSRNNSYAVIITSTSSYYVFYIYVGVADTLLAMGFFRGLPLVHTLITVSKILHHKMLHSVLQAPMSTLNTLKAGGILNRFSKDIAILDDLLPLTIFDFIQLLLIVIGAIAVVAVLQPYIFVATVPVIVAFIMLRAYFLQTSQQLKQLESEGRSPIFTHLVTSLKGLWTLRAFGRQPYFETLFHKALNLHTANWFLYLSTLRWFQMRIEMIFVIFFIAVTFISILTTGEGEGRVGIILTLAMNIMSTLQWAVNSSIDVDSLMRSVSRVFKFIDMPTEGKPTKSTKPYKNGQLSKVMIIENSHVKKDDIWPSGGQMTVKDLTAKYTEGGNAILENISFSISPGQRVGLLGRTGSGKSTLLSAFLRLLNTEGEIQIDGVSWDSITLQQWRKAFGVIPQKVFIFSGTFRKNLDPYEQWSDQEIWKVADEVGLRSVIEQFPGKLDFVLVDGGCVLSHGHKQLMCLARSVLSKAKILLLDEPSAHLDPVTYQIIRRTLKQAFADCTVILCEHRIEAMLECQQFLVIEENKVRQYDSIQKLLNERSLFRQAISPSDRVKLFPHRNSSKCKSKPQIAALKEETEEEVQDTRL

SMILES	IC50 [1]	IC50 [2]	IC50 [3]	CFTR inhibitory activity (in words)	IC50 [4]
O=C(O)c1ccc(/C=C2\SC(=S)N(c3ccc(Cl)c(C(F)(F)F)c3)C2=O)cc1 [Compound 24, (Z)-4-((3-(4-chloro-3-(trifluoromethyl)phenyl)-4-oxo-2-thioxothiazolidin-5-ylidene)methyl)benzoic acid]	10 to 20 µM	10 to 20 µM			
O=C(O)c1ccc(/C=C2\SC(=S)N(c3ccc(C(F)(F)F)cc3)C2=O)cc1 [Compound 25, (Z)-4-((4-oxo-2-thioxo-3-(4-(trifluoromethyl)phenyl)thiazolidin-5-ylidene)methyl)benzoic acid]	10 to 20 µM	10 to 20 µM			
O=C(O)c1ccccc1/C=C1\SC(=S)N(c2cccc(C(F)(F)F)c2)C1=O [Compound 26, (Z)-2-((4-oxo-2-thioxo-3-(3-(trifluoromethyl)phenyl)thiazolidin-5-ylidene)methyl)benzoic acid]	10 to 20 µM	10 to 20 µM			
O=C(O)c1ccccc1/C=C1\SC(=S)N(c2ccccc2C(F)(F)F)C1=O [Compound 27, (Z)-2-((4-oxo-2-thioxo-3-(2-(trifluoromethyl)phenyl)thiazolidin-5-ylidene)methyl)benzoic acid]	10 to 20 µM	10 to 20 µM			
O=C(O)c1cccc(/C=C2\SC(=S)N(c3ccccc3C(F)(F)F)C2=O)c1 [Compound 28, (Z)-3-((4-oxo-2-thioxo-3-(2-(trifluoromethyl)phenyl)thiazolidin-5-ylidene)methyl)benzoic acid]	10 to 20 µM	10 to 20 µM			
O=C(O)c1ccccc1/C=C1\SC(=S)N(c2ccc(C(F)(F)F)cc2)C1=O [Compound 29, (Z)-2-((4-oxo-2-thioxo-3-(4-(trifluoromethyl)phenyl)thiazolidin-5-ylidene)methyl)benzoic acid]	10 to 20 µM	10 to 20 µM			
O=C1/C(=C/c2ccc(O)cc2)SC(=S)N1c1cccc(C(F)(F)F)c1 [Compound 31, (Z)-5-(4-hydroxybenzylidene)-2-thioxo-3-(3-(trifluoromethyl)phenyl) thiazolidin-4-one]	20 to 30 µM	20 to 30 µM		low activity	
O=C(O)c1cc(/C=C2\SC(=S)N(c3ccc(C(F)(F)F)cc3)C2=O)ccc1O [Compound 32, (Z)-2-hydroxy-5-((4-oxo-2-thioxo-3-(4-(trifluoromethyl)phenyl)thiazolidin-5-ylidene)methyl)benzoic acid]	20 to 30 µM	20 to 30 µM			
O=C1/C(=C/c2ccncc2)SC(=S)N1c1cccc(C(F)(F)F)c1 [Compound 33, (Z)-5-(pyridin-4-ylmethylene)-2-thioxo-3-(3-(trifluoromethyl)phenyl) thiazolidin-4-one]		20 to 30 µM	20 to 30 µM	inactive	
O=C1/C(=C/c2ccc(O)c(O)c2O)SC(=S)N1c1cccc(C(F)(F)F)c1 [Compound 34, (Z)-2-thioxo-3-(3-(trifluoromethyl)phenyl)-5-(2,3,4-trihydroxybenzylidene) thiazolidin-4-one]	20 to 30 µM	20 to 30 µM		low activity	
O=C1/C(=C/c2ccc(S(=O)(=O)[O-])cc2)SC(=S)N1c1cccc(C(F)(F)F)c1.[Na+] [Compound 35, sodium (Z)-4-((4-oxo-2-thioxo-3-(3-(trifluoromethyl)phenyl)thiazolidin-5-ylidene)methyl) benzenesulfonate]	20 to 30 µM	20 to 30 µM		inactive	
O=C(O)COc1cccc(/C=C2\SC(=S)N(c3cccc(C(F)(F)F)c3)C2=O)c1 [Compound 36, (Z)-2-(3-((4-oxo-2-thioxo-3-(3-(trifluoromethyl)phenyl)thiazolidin-5-ylidene)methyl)phenoxy) acetic acid]	20 to 30 µM	20 to 30 µM			
O=C1S/C(=C\c2ccc(-c3nn[nH]n3)cc2)C(=O)N1c1cccc(C(F)(F)F)c1 [Compound 48, (Z)-5-(4-(1H-tetrazol-5-yl)benzylidene)-3-(3-(trifluoromethyl)phenyl) thiazolidine-2,4-dione]		10 to 20 µM			10 to 20 µM
O=C(O)c1ccc(CC2SC(=S)N(c3cccc(C(F)(F)F)c3)C2=O)cc1 (stereo not shown) [Compound 56]				inactive	

Next, values leading:

IC50 [1]	IC50 [2]	IC50 [3]	CFTR inhibitory activity (in words)	IC50 [4]	SMILES
1 to 2 µM	1 to 2 µM				O=C(O)c1cc(/C=C2\SC(=S)N(c3cccc(C(F)(F)F)c3)C2=O)ccc1O [Compound 7, (Z)-2-hydroxy-5-((4-oxo-2-thioxo-3-(3-(trifluoromethyl)phenyl)thiazolidin-5-ylidene)methyl)benzoic acid]
1 to 2 µM	1 to 2 µM				O=C(O)c1ccc(/C=C2\SC(=S)N(c3ccc(F)c(C(F)(F)F)c3)C2=O)cc1 [Compound 8, (Z)-4-((3-(4-fluoro-3-(trifluoromethyl)phenyl)-4-oxo-2-thioxothiazolidin-5 ylidene)methyl)benzoic acid]
1 to 2 µM	1 to 2 µM				O=C(O)c1cccc(/C=C2\SC(=S)N(c3cccc(C(F)(F)F)c3)C2=O)c1 [Compound 9, (Z)-3-((4-oxo-2-thioxo-3-(3-(trifluoromethyl)phenyl)thiazolidin-5-ylidene)methyl)benzoic acid]
2 to 3 µM	2 to 3 µM	2.6 µM			O=C(O)COc1ccc(/C=C2\SC(=S)N(c3cccc(C(F)(F)F)c3)C2=O)cc1 [Compound 10, (Z)-2-(4-((4-oxo-2-thioxo-3-(3-(trifluoromethyl)phenyl)thiazolidin-5-ylidene)methyl)phenoxy) acetic acid]
5 to 10 µM	5 to 10 µM				O=C(O)c1cccc(/C=C2\SC(=S)N(c3ccc(F)c(C(F)(F)F)c3)C2=O)c1 [Compound 11, (Z)-3-((3-(4-fluoro-3-(trifluoromethyl)phenyl)-4-oxo-2-thioxothiazolidin-5-ylidene)methyl)benzoic acid]
5 to 10 µM	5 to 10 µM				Cc1cccc(N2C(=O)/C(=C/c3ccc(C(=O)O)cc3)SC2=S)c1 [Compound 12, (Z)-4-((4-oxo-2-thioxo-3-m-tolylthiazolidin-5-ylidene)methyl)benzoic acid]
5 to 10 µM	5 to 10 µM				Cc1cccc(N2C(=O)/C(=C/c3ccc(C(=O)O)cc3)SC2=S)c1C [Compound 13, (Z)-4-((3-(2,3-dimethylphenyl)-4-oxo-2-thioxothiazolidin-5-ylidene)methyl)benzoic acid]
5 to 10 µM	5 to 10 µM		modest inhibition activity		O=C1/C(=C/c2cc(Br)c(O)c(Br)c2)SC(=S)N1c1cccc(C(F)(F)F)c1 [Compound 14, (Z)-5-(3,5-dibromo-4-hydroxybenzylidene)-2-thioxo-3-(3-(trifluoromethyl)phenyl) thiazolidin-4-one]
7 to 9 µM	7 to 9 µM				O=C(O)c1ccc(/C=C2\SC(=S)N(c3cccc(C(F)(F)F)c3)C2=O)c(O)c1 [Compound 16, (Z)-3-hydroxy-4-((4-oxo-2-thioxo-3-(3-(trifluoromethyl)phenyl)thiazolidin-5-ylidene)methyl)benzoic acid]
10 to 20 µM	10 to 20 µM		low activity		O=C1/C(=C/c2cc(O)c(O)c(O)c2)SC(=S)N1c1cccc(C(F)(F)F)c1 [Compound 19, (Z)-2-thioxo-3-(3-(trifluoromethyl)phenyl)-5-(3,4,5-trihydroxybenzylidene) thiazolidin-4-one]
10 to 20 µM	10 to 20 µM				O=C(O)c1ccc(/C=C2\SC(=S)N(c3ccccc3C(F)(F)F)C2=O)cc1 [Compound 20, (Z)-4-((4-oxo-2-thioxo-3-(2-(trifluoromethyl)phenyl)thiazolidin-5-ylidene)methyl)benzoic acid]
10 to 20 µM	10 to 20 µM				O=C(O)c1cccc(/C=C2\SC(=S)N(c3ccc(C(F)(F)F)cc3)C2=O)c1 [Compound 21, (Z)-3-((4-oxo-2-thioxo-3-(4-(trifluoromethyl)phenyl)thiazolidin-5-ylidene)methyl)benzoic acid]
10 to 20 µM	10 to 20 µM				O=C(O)c1cc(/C=C2\SC(=S)N(c3ccccc3C(F)(F)F)C2=O)ccc1O [Compound 22, (Z)-2-hydroxy-5-((4-oxo-2-thioxo-3-(2-(trifluoromethyl)phenyl)thiazolidin-5-ylidene)methyl)benzoic acid]
10 to 20 µM	10 to 20 µM				O=C(O)c1ccc(/C=C2\SC(=S)N(c3cc(C(F)(F)F)cc(C(F)(F)F)c3)C2=O)cc1 [Compound 23, (Z)-4-((3-(3,5-bis(trifluoromethyl)phenyl)-4-oxo-2-thioxothiazolidin-5-ylidene)methyl)benzoic acid]
	5 to 10 µM	~7 µM		5 to 10 µM	O=C(O)c1ccc(SC2CC(=O)N(c3cccc(C(F)(F)F)c3)C2=O)cc1 (stereo not shown) [Compound 50, 4-(2,5-dioxo-1-(3-(trifluoromethyl)phenyl)pyrrolidin-3-ylthio)benzoic acid]
	5 to 10 µM			5 to 10 µM	O=C(O)c1ccc(NC(=S)C2SC(=S)N(c3cccc(C(F)(F)F)c3)C2=O)cc1 (stereo not shown) [Compound 51, 4-(4-oxo-2-thioxo-3-(3-(trifluoromethyl)phenyl)thiazolidine-5-carbothioamido)benzoic acid]
